Reference: PubChem BioAssay (NCI)
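These data come from cells grown in 96-well plates and exposed to compound for 48 hours at five concentrations. GI50: concentration for 50% inhibition of growth. TGI marks complete inhibition of growth.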

Assays:
Experiment in all cases: NCI-60 cell line screen, 48 h
RXF 393 renal = system: RXF 393 renal
RPMI-8226 leukemia = system: RPMI-8226 leukemia
OVCAR-8 ovarian = system: OVCAR-8 ovarian
EKVX NSCLC = system: EKVX NSCLC
786-0 renal = system: 786-0 renal
UACC-62 melanoma = system: UACC-62 melanoma
OVCAR-5 ovarian = system: OVCAR-5 ovarian
KM12 colon = system: KM12 colon
OVCAR-4 ovarian = system: OVCAR-4 ovarian
SF-295 CNS = system: SF-295 CNS

| SMILES | GI50 (RXF 393 renal) | TGI (RXF 393 renal) | GI50 (RPMI-8226 leukemia) | TGI (RPMI-8226 leukemia) | GI50 (OVCAR-8 ovarian) | TGI (OVCAR-8 ovarian) | GI50 (EKVX NSCLC) | TGI (EKVX NSCLC) | GI50 (786-0 renal) | TGI (786-0 renal) | GI50 (UACC-62 melanoma) | TGI (UACC-62 melanoma) | GI50 (OVCAR-5 ovarian) | TGI (OVCAR-5 ovarian) | GI50 (KM12 colon) | TGI (KM12 colon) | GI50 (OVCAR-4 ovarian) | TGI (OVCAR-4 ovarian) | GI50 (SF-295 CNS) | TGI (SF-295 CNS) |
| --- | --- | --- | --- | --- | --- | --- | --- | --- | --- | --- | --- | --- | --- | --- | --- | --- | --- | --- | --- | --- |
| O=C1c2ccccc2-c2c1c1ccccc1c(=O)n2CCCNCCCn1c2c(c3ccccc3c1=O)C(=O)c1ccccc1-2 | 4.07 µM | > 29.1 µM | 2580 nM | 15.9 µM | 2.46 µM | > 26 µM | 3.98 µM | 14.8 µM | 8.53 µM | 29.8 µM | 7.52 µM | 16.4 µM | 3.04 µM | 6.08 µM | 2900 nM | 9.65 µM | 3.2 µM | 9.57 µM | 3.52 µM | > 21.8 µM |
| Cn1ccnc1C(=O)/C=C/c1ccc(CC(=O)Nc2ccc(Cl)cc2)cc1 | 2.97 µM | > 25 µM | 959 nM | > 25 µM | 3.49 µM | > 25 µM | 15.6 µM | > 25 µM | 1.6 µM | > 25 µM | 6.5 µM | > 25 µM | 9.97 µM | > 25 µM | 1510 nM | > 25 µM | 2.18 µM | > 25 µM | 7.39 µM | > 25 µM |
| O=C(Nc1ccc(Cl)c([N+](=O)[O-])c1)Nc1nc2ccccc2s1 | 3.76 µM | 11.4 µM | 2930 nM | 10.5 µM | 3.33 µM | 17.7 µM | 2.59 µM | 10.9 µM | 10.3 µM | 26.8 µM | 4.05 µM | 18 µM | 4.49 µM | 19.3 µM | 2820 nM | 8.32 µM | 4.21 µM | 26 µM | 2.01 µM | 5.41 µM |
| Cc1ccc(NC(c2ccccc2)c2ccc3cccnc3c2O)cc1 (centres undefined) | – | 22.8 µM | – | 19.2 µM | – | 11.1 µM | – | 15 µM | – | 15.1 µM | – | 18.3 µM | – | 22.2 µM | – | 19.1 µM | – | 16.4 µM | – | 16.1 µM |
| O=C(Nc1ccc(Cl)c(C(F)(F)F)c1)C(=O)C(C(=O)/C=C/c1ccccc1)C1OC(=O)c2ccccc21 (centres undefined) | – | > 100 µM | – | > 100 µM | – | > 100 µM | – | > 100 µM | – | > 100 µM | – | > 100 µM | – | > 100 µM | – | > 100 µM | – | > 100 µM | – | > 100 µM |
| CCNC(=O)C[C@@H]1N=C(c2ccc(Cl)cc2)c2cc(OC)ccc2-n2c(C)nnc21 | 8.9 µM | > 100 µM | 367 nM | 5.74 µM | 8.9 µM | > 100 µM | > 100 µM | > 100 µM | 16.4 µM | > 100 µM | 0.618 µM | > 100 µM | > 100 µM | > 100 µM | 27100 nM | > 100 µM | 5.93 µM | > 100 µM | – | > 100 µM |
| O=C(Nc1ccc(S(=O)(=O)Nc2nccs2)cc1)c1cccnc1Nc1cccc(Cl)c1 | 14.4 µM | 33.4 µM | 19800 nM | 89.2 µM | 18 µM | 48.4 µM | 18.3 µM | > 100 µM | 17.9 µM | 39.9 µM | 6.62 µM | 20.3 µM | 17.6 µM | 44.8 µM | 10300 nM | 22.9 µM | 16.3 µM | 69.3 µM | 16.5 µM | 43.5 µM |
| COc1ccc(CN2C(=O)/C(=C\c3cc(OC)c(OC)c(OC)c3)c3cc(OC)ccc32)cc1 | 1.63 µM | 3.47 µM | 1890 nM | 5.63 µM | 2.32 µM | > 23.9 µM | 3.83 µM | > 65.6 µM | 2.29 µM | 5.07 µM | 1.71 µM | 4.19 µM | 2.47 µM | 5.51 µM | 2040 nM | 4.05 µM | 3.5 µM | 27.4 µM | 3.26 µM | > 31.4 µM |
